Here are results for three molecules from patent US4410516A, “1-N(αHydroxy-ω-aminoalkanoyl) derivatives of 5,3',4'-trideoxy- or 5,3', 4'-trideoxy-6'-N- methyl- or 5, 3', 4',6"-tetradeoxykannamyci B and production thereof” (Zaidan Hojin Biseibutsu Kagaku Kenkyu Kai, priority 1981, dated 1983).

What all share (type): cell-based
Assay [1] deals with Bacillus subtilis PCI 219. Briefly: Minimum inhibitory concentration, serial dilution on nutrient agar. The note with it: PCI219, 37° C., 18 hours incubation.
Assay [2] concerns Escherichia coli K-12 R 388. The description is as above. The note with it: K12R388, 18 h.
Assay [3] has as its system Pseudomonas aeruginosa H11. Described as above. The note with it: H11, nutrient agar, 37° C., 18 hours incubation, read-out: MIC.
The subject of the next assay is Bacillus anthracis. The assay can be described thus: microbe, parasite or virus in culture. The note with it: 18 h.
Another assay has as its system Escherichia coli NIHJ. The assay can be described thus: Minimum inhibitory concentration, serial dilution on nutrient agar. The note with it: nutrient agar, 37° C., 18 hours incubation, read-out: MIC.
Assay [4] deals with Bacillus cereus ATCC 10702. Described as above. The note with it: ATCC10702, nutrient agar, 37° C., 18 hours incubation, read-out: MIC.
Assay [5] concerns Escherichia coli K-12 LA 290 R55. The assay is described as above. The note with it: K12LA290R55, 18 h.
Another assay relates to Providencia 2991. The assay is described as above. The note with it: 37° C., 18 hours incubation.
The test system of assay [6] is Staphylococcus aureus 209P. The description is as above. The note with it: 37° C., 18 hours incubation.
A further assay deals with Shigella sonnei JS11746. Described as above. The note with it: 37° C., 18 hours incubation. From the text:
(§1) The minimum inhibitory concentration (mcg/ml) of 1-N-[(S)-4-amino-2-hydroxybutyryl]-5,3',4'-trideoxykanamycin B (abbreviated as AHB-trideoxyKMB), 1-N-[(RS)-3-amino-2-hydroxypropionyl]-5,3',4'-trideoxykanamycin B (abbreviated as AHP-trideoxy-KMB) and 1-N-[(S)-4-amino-2-hydroxybutyryl]-5,3',4',6"-tetradeoxykanamycin B (abbreviated as AHB-tetradeoxyKMB) of the formula (II) according to this invention as well as of the new compound 5,3',4',6"-tetradeoxykanamycin B (abbreviated as tetradeoxyKMB) of the formula (III) according to this invention against various microorganisms were determined according to serial dilution method on a nutrient agar medium at 37° C., the estimation being made after 18 hours incubation. For comparison purpose, the minimum inhibitory concentrations of habekacin were also determined in the same manner as stated above.
(§2) The minimum inhibitory concentrations (mcg/ml) of 1-N-[(S)-4-amino-2-hydroxybutyryl]-5,3',4'-trideoxy-6'-N-methylkanamycin B (abbreviated as AHB-trideoxyMKMB), 1-N-[(RS)-3-amino-2-hydroxypropionyl]-5,3',4'-trideoxy-6'-N-methylkanamycin B (abbreviated as AHP-trideoxyMKMB) and 1-N-[(S)-5-amino-2-hydroxyvaleryl]-5,3',4'-trideoxy-6'-N-methylkanamycin B (abbreviated as AHV-trideoxyMKMB) of the formula (IV) according to this invention as well as of the new compound 5,3',4'-trideoxy-6'-N-methylkanamycin B (abbreviated as trideoxyMKMB) of the formula (V) according to this invention against various microorganisms were determined according to serial dilution method on a nutrient agar medium at 37° C., the estimation being made after 18 hours incubation. For comparison purpose, the minimum inhibitory concentrations of 1-N-[(S)-4-amino-2-hydroxybutyryl]-3',4'-dideoxykanamycin B (ie. habekacin) were also determined in the same manner as stated above.

Assay [7] has as its system Escherichia coli K-12 C 600R/35. The description is as above. The note with it: K12C600R/35, 37° C., 18 hours incubation.
Text: as §1, §2

In assay [8] the test system is Escherichia coli K-12 J5R 11-2. The description is as above. The note with it: K12J5R112, 37° C., 18 hours incubation.
Text: as §1, §2

Assay [9] relates to Escherichia coli K-12 ML 1630. The description is as above. The note with it: K12ML1630, 37° C., 18 hours incubation.
Text: as §1, §2

Assay [10] deals with Shigella flexneri 4b JS11811. The assay is described as above. The note with it: 4BJS11811, 37° C., 18 hours incubation.
Text: as §1, §2

The next assay concerns Escherichia coli W677. The description is as above.
Assay [11] has as its system Bacillus subtilis NRRL B-558. Described as above. The note with it: NRRLB558, 37° C., 18 hours incubation.
For assay [12], the system named is Staphylococcus epidermidis 109. Described as above. The note with it: Staphylococcus epidermidis, 109; nutrient agar, 37° C., 18 hours incubation; read-out: MIC.
The subject of assay [13] is Pseudomonas aeruginosa ROS134/PU21. The description is as above. The note with it: ROS134/PU21, 18 h.
Assay [14] concerns Pseudomonas aeruginosa No. 12. The assay is described as above.
Another assay concerns Salmonella typhi T-63. The description is as above. The note with it: Salmonella enterica, 18 h.
Assay [15] deals with Escherichia coli K-12 ML 1410 R81. Described as above. The note with it: 18 h.
The mark [16] stands for this setting: W677, nutrient agar, 37° C., 18 hours incubation, read-out: MIC.

Converted amounts (≈) assume the structure as drawn. Read-outs that look alike come from different tables or passages of the source.

Regarding `C[C@H]1O[C@H](O[C@@H]2C[C@H](O[C@H]3O[C@H](CN)CC[C@H]3N)[C@@H](N)C[C@H]2NC(=O)[C@@H](O)CCN)[C@H](O)[C@@H](N)[C@@H]1O` [AHB-tetradeoxyKMB, 1-N-[(S)-4-amino-2-hydroxybutyryl]-5,3',4',6"-tetradeoxykanamycin B], the MIC was less than 0.2 µg/mL in assay [1]; 0.39 µg/mL (≈ 0.749 µM) in assay [2]; 12.5 µg/mL (≈ 24 µM) in assay [3]; less than 0.2 µg/mL against Bacillus anthracis; 0.78 µg/mL (≈ 1.5 µM) with Escherichia coli NIHJ; 0.39 µg/mL (≈ 0.749 µM) in assay [4]. Besides, the MIC in assay [5] is 1.56 µg/mL (≈ 3 µM); with Providencia 2991, 25 µg/mL (≈ 48 µM); in assay [6] it was less than 0.2 µg/mL; in the assay on Shigella sonnei JS11746 it was 3.13 µg/mL (≈ 6.01 µM); in [7], 0.78 µg/mL (≈ 1.5 µM); in assay [8] it was 0.78 µg/mL (≈ 1.5 µM). In addition, the MIC is 1.56 µg/mL (≈ 3 µM) in assay [9]; 1.56 µg/mL (≈ 3 µM) in assay [10]; 0.78 µg/mL (≈ 1.5 µM) in the assay on Escherichia coli W677 (setting [16]); less than 0.2 µg/mL in [11]; 0.78 µg/mL (≈ 1.5 µM) in [12]; 100 µg/mL (≈ 192 µM) in assay [13]. In addition, the MIC turned out to be 6.25 µg/mL (≈ 12 µM) in [14] (NO.12, nutrient agar, 37° C., 18 hours incubation, read-out: MIC) and 25 µg/mL (≈ 48 µM) with Salmonella typhi T-63.

In the case of `NCC[C@H](O)C(=O)N[C@@H]1C[C@H](N)[C@@H](O[C@H]2O[C@H](CN)CC[C@H]2N)C[C@H]1O[C@H]1O[C@H](CO)[C@@H](O)[C@H](N)[C@H]1O` [AHB-trideoxyKMB, 1-N-[(S)-4-amino-2-hydroxybutyryl]-5,3',4'-trideoxykanamycin B], the MIC in assay [1] is less than 0.2 µg/mL; in [2] it was 0.78 µg/mL (≈ 1.45 µM); in assay [3] it was 6.25 µg/mL (≈ 11.6 µM); with Bacillus anthracis it was less than 0.2 µg/mL; with Escherichia coli NIHJ, 0.78 µg/mL (≈ 1.45 µM); in assay [4], 0.78 µg/mL (≈ 1.45 µM). In addition, the MIC in assay [5] is 3.13 µg/mL (≈ 5.83 µM); in the assay on Providencia 2991, 6.25 µg/mL (≈ 11.6 µM); in assay [6], less than 0.2 µg/mL; against Shigella sonnei JS11746, 3.13 µg/mL (≈ 5.83 µM); in assay [7], 0.78 µg/mL (≈ 1.45 µM); in assay [8], 0.78 µg/mL (≈ 1.45 µM). The MIC is 1.56 µg/mL (≈ 2.91 µM) in [9]; 3.13 µg/mL (≈ 5.83 µM) in assay [10]; 0.78 µg/mL (≈ 1.45 µM) in the assay with Escherichia coli W677 (setting [16]); 1.56 µg/mL (≈ 2.91 µM) in assay [15]; less than 0.2 µg/mL in [11]; 0.39 µg/mL (≈ 0.727 µM) in assay [12]. The MIC in assay [13] is more than 100 µg/mL; in assay [14] (NO.12, 18 h), 3.13 µg/mL (≈ 5.83 µM); in the assay on Salmonella typhi T-63, 25 µg/mL (≈ 46.6 µM).

Consider `CNC[C@@H]1CC[C@@H](N)[C@@H](O[C@H]2C[C@@H](O[C@H]3O[C@H](CO)[C@@H](O)[C@H](N)[C@H]3O)[C@H](NC(=O)[C@@H](O)CCN)C[C@@H]2N)O1` [AHB-trideoxyMKMB, 1-N-[(S)-4-amino-2-hydroxybutyryl]-5,3',4'-trideoxy-6'-N-methylkanamycin B], for which the MIC is less than 0.2 µg/mL in assay [1]; 0.39 µg/mL (≈ 0.708 µM) in assay [2]; 12.5 µg/mL (≈ 22.7 µM) in assay [3]; less than 0.2 µg/mL against Bacillus anthracis; 0.78 µg/mL (≈ 1.42 µM) in the assay on Escherichia coli NIHJ; 0.39 µg/mL (≈ 0.708 µM) in assay [4]. The MIC in assay [5] is 1.56 µg/mL (≈ 2.83 µM); against Providencia 2991, 12.5 µg/mL (≈ 22.7 µM); in [6] it was less than 0.2 µg/mL; in the assay on Shigella sonnei JS11746, 3.13 µg/mL (≈ 5.68 µM); in assay [7] it was 1.56 µg/mL (≈ 2.83 µM); in assay [8], 1.56 µg/mL (≈ 2.83 µM). For the same molecule, the MIC in assay [9] was 1.56 µg/mL (≈ 2.83 µM); in assay [10], 0.78 µg/mL (≈ 1.42 µM); against Escherichia coli W677 (W677, 18 h), 1.56 µg/mL (≈ 2.83 µM); in assay [15], 1.56 µg/mL (≈ 2.83 µM); in [11], less than 0.2 µg/mL; in assay [12], less than 0.2 µg/mL. Besides, the MIC in assay [13] was determined as 50 µg/mL (≈ 90.8 µM); in [14] (NO.12, 18 h), 1.56 µg/mL (≈ 2.83 µM); with Salmonella typhi T-63, 1.56 µg/mL (≈ 2.83 µM).
